PubChem BioAssay AID1919002 (Molecular Pharmacology Branch, DTP, NCI, 2023)

System: 743489-274-T-PDC complex spheroid growth
Experiment: Anticancer human tumor 743489-274-T-PDC patient-derived renal cell carcinoma cell line growth inhibition [AhR]
Settings: for IC50: curve of first compound; for viability, T/C: stronger effect = lower value
Summary of the method: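 Complex tumor spheroids co-cultured with HUVEC and human MSC stroma; AhR antagonists tested in combination with standard-of-care and investigational agents. Top concentration at or near clinical Cmax (else 10 microM), half-log dilutions; growth expressed as percent test/control.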

[1] = second compound 0.1 µM, first compound 0.00316 µM
[2] = second compound 0.1 µM, first compound 0.01 µM
[3] = second compound 0.1 µM, first compound 0.0316 µM
[4] = second compound 0.1 µM, first compound 0.1 µM
[5] = second compound 0.316 µM, first compound 0.00316 µM
[6] = second compound 0.316 µM, first compound 0.01 µM
[7] = second compound 0.316 µM, first compound 0.0316 µM
[8] = second compound 0.316 µM, first compound 0.1 µM
[9] = second compound 1 µM, first compound 0.00316 µM
[10] = second compound 1 µM, first compound 0.01 µM
[11] = second compound 1 µM, first compound 0.0316 µM
[12] = second compound 1 µM, first compound 0.1 µM
[13] = second compound 3.16 µM, first compound 0.00316 µM
[14] = second compound 3.16 µM, first compound 0.01 µM
[15] = second compound 3.16 µM, first compound 0.0316 µM
[16] = second compound 3.16 µM, first compound 0.1 µM
[17] = second compound 10 µM, first compound 0.00316 µM
[18] = second compound 10 µM, first compound 0.01 µM
[19] = second compound 10 µM, first compound 0.0316 µM
[20] = second compound 10 µM, first compound 0.1 µM
[21] = second compound 0.1 µM, first compound 0.316 µM
[22] = second compound 0.1 µM, first compound 1 µM
[23] = second compound 0.1 µM, first compound 3.16 µM
[24] = second compound 0.1 µM, first compound 10 µM
[25] = second compound 0.316 µM, first compound 0.316 µM
[26] = second compound 0.316 µM, first compound 1 µM
[27] = second compound 0.316 µM, first compound 3.16 µM
[28] = second compound 0.316 µM, first compound 10 µM
[29] = second compound 1 µM, first compound 0.316 µM
[30] = second compound 1 µM, first compound 1 µM
[31] = second compound 1 µM, first compound 3.16 µM
[32] = second compound 1 µM, first compound 10 µM
[33] = second compound 3.16 µM, first compound 0.316 µM
[34] = second compound 3.16 µM, first compound 1 µM
[35] = second compound 3.16 µM, first compound 3.16 µM
[36] = second compound 3.16 µM, first compound 10 µM
[37] = second compound 10 µM, first compound 0.316 µM
[38] = second compound 10 µM, first compound 1 µM
[39] = second compound 10 µM, first compound 3.16 µM
[40] = second compound 10 µM, first compound 10 µM
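Further: spheroids exposed to agents for 7 days before readout.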
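Wherever viability, T/C is given: 100% = DMSO vehicle control wells.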

For Cn1ncnc1C1c2n[nH]c(=O)c3cc(F)cc(c23)NC1c1ccc(F)cc1 (stereo not given) + Cc1ccccc1N=Nc1ccc(NC(=O)c2ccnn2C)c(C)c1, the IC50 (second compound 0.1 µM) was over 0.1 µM, the IC50 (second compound 0.316 µM) was over 0.1 µM and the IC50 (second compound 1 µM) was over 0.1 µM. The IC50 (second compound 3.16 µM) was over 0.1 µM, the IC50 (second compound 10 µM) was over 0.1 µM and the viability, T/C (second compound 0.1 µM, first compound 0.000316 µM) was 97.3%. The viability, T/C (second compound 0.1 µM, first compound 0.001 µM) was 106%, the viability, T/C [1] was 101% and the viability, T/C [2] was 101%. The viability, T/C [3] was 103%, the viability, T/C [4] was 90.2% and the viability, T/C (second compound 0.316 µM, first compound 0.000316 µM) was 98.2%. The viability, T/C (second compound 0.316 µM, first compound 0.001 µM) was 107%, the viability, T/C [5] was 89% and the viability, T/C [6] was 98.9%. The viability, T/C [7] was 97.8%, the viability, T/C [8] was 88.8% and the viability, T/C (second compound 1 µM, first compound 0.000316 µM) was 105%. It also gave a viability, T/C (second compound 1 µM, first compound 0.001 µM) of 92.1%, a viability, T/C [9] of 100% and a viability, T/C [10] of 96.7%. It also gave a viability, T/C [11] of 106%, a viability, T/C [12] of 92.5% and a viability, T/C (second compound 3.16 µM, first compound 0.000316 µM) of 93.3%. For the same molecule, the viability, T/C (second compound 3.16 µM, first compound 0.001 µM) was 106%, the viability, T/C [13] was 97.7% and the viability, T/C [14] was 91%. For the same molecule, the viability, T/C [15] was 94.1%, the viability, T/C [16] was 102% and the viability, T/C (second compound 10 µM, first compound 0.000316 µM) was 99.8%. It also gave a viability, T/C (second compound 10 µM, first compound 0.001 µM) of 101%, a viability, T/C [17] of 103% and a viability, T/C [18] of 92.2%. The viability, T/C [19] was 89.4% and the viability, T/C [20] was 103%.

Molecule CC1COCCN1c1cc(C2(S(C)(=N)=O)CC2)nc(-c2ccnc3[nH]ccc23)n1 (stereo not given) + CC(CO)NC(=O)c1cc(-c2ccc(Cl)cc2)nn(-c2cnn(C)c2)c1=O has an IC50 (second compound 0.1 µM) of over 10 µM, an IC50 (second compound 0.316 µM) of over 10 µM and an IC50 (second compound 1 µM) of over 10 µM. It also gave an IC50 (second compound 3.16 µM) of over 10 µM, an IC50 (second compound 10 µM) of over 10 µM and a viability, T/C [3] of 97.5%. For the same molecule, the viability, T/C [4] was 89.1%, the viability, T/C [21] was 94.7% and the viability, T/C [22] was 92%. The viability, T/C [23] was 98.7%, the viability, T/C [24] was 96.7% and the viability, T/C [7] was 90.2%. It also gave a viability, T/C [8] of 99.5%, a viability, T/C [25] of 96.3% and a viability, T/C [26] of 86.2%. For the same molecule, the viability, T/C [27] was 85.3%, the viability, T/C [28] was 91.3% and the viability, T/C [11] was 99%. For the same molecule, the viability, T/C [12] was 84.7%, the viability, T/C [29] was 95.3% and the viability, T/C [30] was 101%. The viability, T/C [31] was 87.4%, the viability, T/C [32] was 93% and the viability, T/C [15] was 92.7%. For the same molecule, the viability, T/C [16] was 86.8%, the viability, T/C [33] was 86.1% and the viability, T/C [34] was 90.3%. The viability, T/C [35] was 84.5%, the viability, T/C [36] was 103% and the viability, T/C [19] was 109%. For the same molecule, the viability, T/C [20] was 94.2%, the viability, T/C [37] was 89.9% and the viability, T/C [38] was 83.3%. For the same molecule, the viability, T/C [39] was 93.7% and the viability, T/C [40] was 102%.

With Nc1ncn(C2CC(O)C(CO)O2)c(=O)n1 (stereo not given) + Cc1ccccc1N=Nc1ccc(NC(=O)c2ccnn2C)c(C)c1 the IC50 (second compound 0.1 µM) was over 1 µM, the IC50 (second compound 0.316 µM) was over 1 µM and the IC50 (second compound 1 µM) was over 1 µM. For the same molecule, the IC50 (second compound 3.16 µM) was over 1 µM, the IC50 (second compound 10 µM) was over 1 µM and the viability, T/C [1] was 86.2%. For the same molecule, the viability, T/C [2] was 91.2%, the viability, T/C [3] was 88.6% and the viability, T/C [4] was 92.5%. For the same molecule, the viability, T/C [21] was 103%, the viability, T/C [22] was 87.1% and the viability, T/C [5] was 107%. It also gave a viability, T/C [6] of 89.2%, a viability, T/C [7] of 89.8% and a viability, T/C [8] of 87.2%. The viability, T/C [25] was 87.8%, the viability, T/C [26] was 84.7% and the viability, T/C [9] was 89.7%. The viability, T/C [10] was 99.1%, the viability, T/C [11] was 101% and the viability, T/C [12] was 79.8%. It also gave a viability, T/C [29] of 101%, a viability, T/C [30] of 87.9% and a viability, T/C [13] of 94.8%. The viability, T/C [14] was 81.7%, the viability, T/C [15] was 83.9% and the viability, T/C [16] was 74.8%. The viability, T/C [33] was 88.9%, the viability, T/C [34] was 82.8% and the viability, T/C [17] was 92.7%. For the same molecule, the viability, T/C [18] was 88%, the viability, T/C [19] was 90% and the viability, T/C [20] was 96.2%. It also gave a viability, T/C [37] of 80.1% and a viability, T/C [38] of 82.8%.

CC(C)c1c(-c2ccccc2)nc2c(C#N)c[nH]n2c1=O + Cc1cncc(-c2nc(NCCc3c[nH]c4ccccc34)c3ncn(C(C)C)c3n2)c1 was tested, and the IC50 (second compound 0.1 µM) was over 10 µM, the IC50 (second compound 0.316 µM) was over 10 µM and the IC50 (second compound 1 µM) was over 10 µM. For the same molecule, the IC50 (second compound 3.16 µM) was over 10 µM, the IC50 (second compound 10 µM) was over 10 µM and the viability, T/C [3] was 101%. For the same molecule, the viability, T/C [4] was 126%, the viability, T/C [21] was 104% and the viability, T/C [22] was 103%. It also gave a viability, T/C [23] of 96.2%, a viability, T/C [24] of 104% and a viability, T/C [7] of 112%. For the same molecule, the viability, T/C [8] was 104%, the viability, T/C [25] was 101% and the viability, T/C [26] was 107%. It also gave a viability, T/C [27] of 100%, a viability, T/C [28] of 96.7% and a viability, T/C [11] of 107%. It also gave a viability, T/C [12] of 103%, a viability, T/C [29] of 111% and a viability, T/C [30] of 96.7%. It also gave a viability, T/C [31] of 105%, a viability, T/C [32] of 102% and a viability, T/C [15] of 114%. It also gave a viability, T/C [16] of 119%, a viability, T/C [33] of 121% and a viability, T/C [34] of 119%. It also gave a viability, T/C [35] of 110%, a viability, T/C [36] of 115% and a viability, T/C [19] of 126%. It also gave a viability, T/C [20] of 141%, a viability, T/C [37] of 133% and a viability, T/C [38] of 125%. The viability, T/C [39] was 109% and the viability, T/C [40] was 134%.
